From patent US11203613B2, “Peptidomimetic proteasome inhibitors” (CORNELL UNIVERSITY, priority 2017, dated 2021) come the findings set out here.

Molecules are shown by their SMILES.

For this experiment, the target named is Human Constitutive (Hu C-20S) β5 Active Subunit (Homo sapiens, UniProt P28074). Kind of experiment: IC50 determination, human constitutive 20S proteasome β5c (suc-LLVY-AMC hydrolysis). The format is biochemical. The conditions noted are these: Table 3; IC50 against human constitutive β5 active subunit; read-out: Hu-C20S β5.
Consider `C[C@H]1CCCCN1C(=O)C[C@H](NC(=O)C1CC2(C1)CC(F)(F)C2)C(=O)NC1(c2nc3cccc(F)c3[nH]2)CC1` (stereo in doubt) [CEN-62, 6,6-Difluoro-N—((S)-1-((1-(7-fluoro-1H-benzo[d]imidazol-2-yl)cyclopropyl)amino)-4-((S)-2-methylpiperidin-1-yl)-1,4-dioxobutan-2-yl)spiro[3.3]heptane-2-carboxamide], for which the IC50 was determined as 2.4 µM. In the case of `CC[C@H]1CCCCN1C(=O)C[C@H](N)C(=O)N[C@@H](C)c1nc2c(F)cccc2[nH]1` [CEN-1, (S)-2-Amino-4-((S)-2-ethylpiperidin-1-yl)-N—((S)-1-(4-fluoro-1H-benzo[d]imidazol-2-yl)ethyl)-4-oxobutanamide] it was 14.2 µM; in that of `CC[C@H]1CCCCN1C(=O)C[C@H](NC(=O)CC1CC1)C(=O)N[C@@H](C)c1nc2c(F)cccc2[nH]1` [CEN-2, (S)-2-(2-Cyclopropylacetamido)-4-((S)-2-ethylpiperidin-1-yl)-N—((S)-1-(4-fluoro-1H-benzo[d]imidazol-2-yl)ethyl)-4-oxobutanamide], 16.9 µM. Next, `CC[C@H]1CCCCN1C(=O)C[C@H](NC(=O)CCC(C)C)C(=O)N[C@@H](C)c1nc2c(F)cccc2[nH]1` [CEN-3, N—((S)-4-((S)-2-Ethylpiperidin-1-yl)-1-(((S)-1-(4-fluoro-1H-benzo[d]imidazol-2-yl)ethyl)amino)-1,4-dioxobutan-2-yl)-4-methylpentanamide]: 10.6 µM; `CC[C@H]1CCCCN1C(=O)C[C@H](NC(=O)CCN(C)C)C(=O)N[C@@H](C)c1nc2c(F)cccc2[nH]1` [CEN-4, (S)-2-(3-(Dimethylamino)propanamido)-4-((S)-2-ethylpiperidin-1-yl)-N—((S)-1-(4-fluoro-1H-benzo[d]imidazol-2-yl)ethyl)-4-oxobutanamide]: 6.4 µM. `CC[C@H]1CCCCN1C(=O)C[C@H](NC(=O)OCC(C)C)C(=O)N[C@@H](C)c1nc2c(F)cccc2[nH]1` [CEN-5, Isobutyl ((S)-4-((S)-2-Ethylpiperidin-1-yl)-1-(((S)-1-(4-fluoro-1H-benzo[d]imidazol-2-yl)ethyl)amino)-1,4-dioxobutan-2-yl)carbamate]: the IC50 was determined as 2.5 µM. Next, `CC[C@H]1CCCCN1C(=O)C[C@H](NC(=O)c1cc(C)on1)C(=O)N[C@@H](C)c1nc2c(F)cccc2[nH]1` [CEN-6, N—((S)-4-((S)-2-Ethylpiperidin-1-yl)-1-(((S)-1-(4-fluoro-1H-benzo[d]imidazol-2-yl)ethyl)amino)-1,4-dioxobutan-2-yl)-5-methylisoxazole-3-carboxamide]: 7.1 µM; `CC[C@H]1CCCCN1C(=O)C[C@H](NC(=O)CC(F)(F)F)C(=O)N[C@@H](C)c1nc2c(F)cccc2[nH]1` [CEN-7, (S)-4-((S)-2-Ethylpiperidin-1-yl)-N—((S)-1-(4-fluoro-1H-benzo[d]imidazol-2-yl)ethyl)-4-oxo-2-(3,3,3-trifluoropropanamido)butanamide]: 4.2 µM. In the case of `CC[C@H]1CCCCN1C(=O)C[C@H](Nc1nc(C(C)C)no1)C(=O)N[C@@H](C)c1nc2c(F)cccc2[nH]1` [CEN-8, (S)-4-((S)-2-Ethylpiperidin-1-yl)-N—((S)-1-(4-fluoro-1H-benzo[d]imidazol-2-yl)ethyl)-2-((3-isopropyl-1,2,4-oxadiazol-5-yl)amino)-4-oxobutanamide] it was 3.6 µM; in that of `CC[C@H]1CCCCN1C(=O)C[C@H](NC(=O)C1CC(C)(C)C1)C(=O)N[C@@H](C)c1nc2c(F)cccc2[nH]1` [CEN-9, N—((S)-4-((S)-2-Ethylpiperidin-1-yl)-1-(((S)-1-(4-fluoro-1H-benzo[d]imidazol-2-yl)ethyl)amino)-1,4-dioxobutan-2-yl)-3,3-dimethylcyclobutane-1-carboxamide], 4.4 µM.

For the compound `CC[C@H]1CCCCN1C(=O)C[C@H](NC(=O)C1CC1C(C)C)C(=O)N[C@@H](C)c1nc2c(F)cccc2[nH]1` (stereo partly drawn) [CEN-10, N—((S)-4-((S)-2-Ethylpiperidin-1-yl)-1-(((S)-1-(4-fluoro-1H-benzo[d]imidazol-2-yl)ethyl)amino)-1,4-dioxobutan-2-yl)-2-isopropylcyclopropane-1-carboxamide], the IC50 was 37.7 µM. As to `CC[C@H]1CCCCN1C(=O)C[C@H](NC(=O)c1cncs1)C(=O)N[C@@H](C)c1nc2c(F)cccc2[nH]1` [CEN-11, N—((S)-4-((S)-2-Ethylpiperidin-1-yl)-1-(((S)-1-(4-fluoro-1H-benzo[d]imidazol-2-yl)ethyl)amino)-1,4-dioxobutan-2-yl)thiazole-5-carboxamide], the IC50 is 19.2 µM.

Consider `CC[C@H]1CCCCN1C(=O)C[C@H](NC(=O)N1CCCCC1)C(=O)N[C@@H](C)c1nc2c(F)cccc2[nH]1` [CEN-12, N—((S)-4-((S)-2-Ethylpiperidin-1-yl)-1-(((S)-1-(4-fluoro-1H-benzo[d]imidazol-2-yl)ethyl)amino)-1,4-dioxobutan-2-yl)piperidine-1-carboxamide], for which the IC50 turned out to be 3 µM.

`CC[C@H]1CCCCN1C(=O)C[C@H](NC(=O)CCC(C)(C)C)C(=O)N[C@@H](C)c1nc2c(F)cccc2[nH]1` [CEN-13, N—((S)-4-((S)-2-Ethylpiperidin-1-yl)-1-(((S)-1-(4-fluoro-1H-benzo[d]imidazol-2-yl)ethyl)amino)-1,4-dioxobutan-2-yl)-4,4-dimethylpentanamide]: the IC50 was 11.2 µM. With `CC[C@H]1CCCCN1C(=O)C[C@H](NC(=O)N1CCOCC1)C(=O)N[C@@H](C)c1nc2c(F)cccc2[nH]1` [CEN-14, N—((S)-4-((S)-2-Ethylpiperidin-1-yl)-1-(((S)-1-(4-fluoro-1H-benzo[d]imidazol-2-yl)ethyl)amino)-1,4-dioxobutan-2-yl)morpholine-4-carboxamide], the IC50 came to 4.5 µM.

As for `CC[C@H]1CCCCN1C(=O)C[C@H](NC(=O)N(C)CC(C)C)C(=O)N[C@@H](C)c1nc2c(F)cccc2[nH]1` [CEN-15, (S)-4-((S)-2-Ethylpiperidin-1-yl)-N—((S)-1-(4-fluoro-1H-benzo[d]imidazol-2-yl)ethyl)-2-(3-isobutyl-3-methylureido)-4-oxobutanamide], the IC50 amounted to 5 µM.

Consider `CC[C@H]1CCCCN1C(=O)C[C@H](Nc1nc2ccccc2o1)C(=O)N[C@@H](C)c1nc2c(F)cccc2[nH]1` [CEN-16, (S)-2-(Benzo[d]oxazol-2-ylamino)-4-((S)-2-ethylpiperidin-1-yl)-N—((S)-1-(4-fluoro-1H-benzo[d]imidazol-2-yl)ethyl)-4-oxobutanamide], for which the IC50 was determined as 4.5 µM. Next, `CC[C@H]1CCCCN1C(=O)C[C@H](NC(=O)C1CC2(CCC2)C1)C(=O)N[C@@H](C)c1nc2c(F)cccc2[nH]1` [CEN-17, N—((S)-4-((S)-2-Ethylpiperidin-1-yl)-1-(((S)-1-(4-fluoro-1H-benzo[d]imidazol-2-yl)ethyl)amino)-1,4-dioxobutan-2-yl)spiro[3.3]heptane-2-carboxamide]: 13.4 µM. As to `CC[C@H]1CCCCN1C(=O)C[C@H](NC(=O)c1cnc(C)s1)C(=O)N[C@@H](C)c1nc2c(F)cccc2[nH]1` [CEN-18, N—((S)-4-((S)-2-Ethylpiperidin-1-yl)-1-(((S)-1-(4-fluoro-1H-benzo[d]imidazol-2-yl)ethyl)amino)-1,4-dioxobutan-2-yl)-2-methylthiazole-5-carboxamide], the IC50 was 9.5 µM.

On to `CC[C@H]1CCCCN1C(=O)C[C@H](Nc1nc2ccc(C)cc2o1)C(=O)N[C@@H](C)c1nc2c(F)cccc2[nH]1` [CEN-19, (S)-4-((S)-2-Ethylpiperidin-1-yl)-N—((S)-1-(4-fluoro-1H-benzo[d]imidazol-2-yl)ethyl)-2-((6-methylbenzo[d]oxazol-2-yl)amino)-4-oxobutanamide], for which the IC50 worked out at 1.1 µM.

As for `CC[C@H]1CCCCN1C(=O)C[C@H](NC(=O)CCc1ccccc1)C(=O)N[C@@H](C)c1nc2c(F)cccc2[nH]1` [CEN-20, (S)-4-((S)-2-Ethylpiperidin-1-yl)-N—((S)-1-(4-fluoro-1H-benzo[d]imidazol-2-yl)ethyl)-4-oxo-2-(3-phenylpropanamido)butanamide], the IC50 turned out to be 2.6 µM. Next, `CC[C@H]1CCCCN1C(=O)C[C@H](NC(=O)NCc1ccccc1)C(=O)N[C@@H](C)c1nc2c(F)cccc2[nH]1` [CEN-21, (S)-2-(3-Benzylureido)-4-((S)-2-ethylpiperidin-1-yl)-N—((S)-1-(4-fluoro-1H-benzo[d]imidazol-2-yl)ethyl)-4-oxobutanamide]: 9.4 µM; `CC[C@H]1CCCCN1C(=O)C[C@H](Nc1nc2ccccc2s1)C(=O)N[C@@H](C)c1nc2c(F)cccc2[nH]1` [CEN-22, (S)-2-(Benzo[d]thiazol-2-ylamino)-4-((S)-2-ethylpiperidin-1-yl)-N—((S)-1-(4-fluoro-1H-benzo[d]imidazol-2-yl)ethyl)-4-oxobutanamide]: 1.2 µM; `CC[C@H]1CCCCN1C(=O)C[C@H](NC(=O)OCc1ccccc1)C(=O)N[C@@H](C)c1nc2c(F)cccc2[nH]1` [CEN-23, Benzyl ((S)-4-((S)-2-Ethylpiperidin-1-yl)-1-(((S)-1-(4-fluoro-1H-benzo[d]imidazol-2-yl)ethyl)amino)-1,4-dioxobutan-2-yl)carbamate]: 5.8 µM. Next, `CC[C@H]1CCCCN1C(=O)C[C@H](NS(=O)(=O)CCC(C)C)C(=O)N[C@@H](C)c1nc2c(F)cccc2[nH]1` [CEN-24, (S)-4-((S)-2-Ethylpiperidin-1-yl)-N—((S)-1-(4-fluoro-1H-benzo[d]imidazol-2-yl)ethyl)-2-((3-methylbutyl)sulfonamido)-4-oxobutanamide]: 17.8 µM. Next, `CC[C@H]1CCCCN1C(=O)C[C@H](NC(=O)[C@H]1C[C@@H]1c1ccccc1)C(=O)N[C@@H](C)c1nc2c(F)cccc2[nH]1` [CEN-25, (1S,2S)—N—((S)-4-((S)-2-Ethylpiperidin-1-yl)-1-(((S)-1-(4-fluoro-1H-benzo[d]imidazol-2-yl)ethyl)amino)-1,4-dioxobutan-2-yl)-2-phenylcyclopropane-1-carboxamide]: 8.1 µM; `CC[C@H]1CCCCN1C(=O)C[C@H](NC(=O)N(C)Cc1ccccc1)C(=O)N[C@@H](C)c1nc2c(F)cccc2[nH]1` [CEN-26, (S)-2-(3-Benzyl-3-methylureido)-4-((S)-2-ethylpiperidin-1-yl)-N—((S)-1-(4-fluoro-1H-benzo[d]imidazol-2-yl)ethyl)-4-oxobutanamide]: 3.3 µM.
